# Laboratory results: ChEMBL document CHEMBL1146741, “Cycloalkyl[b][1,4]benzodiazepinoindoles are agonists at the human 5-HT2C receptor” (Bioorg Med Chem Lett, 2004)
# Experiments:
# [1] = target: 5-hydroxytryptamine receptor 2B (Homo sapiens) (UniProt P41595); test: Binding affinity against 5-hydroxytryptamine 2B receptor
# [2] = target: Sodium-dependent serotonin transporter (Rattus norvegicus) (UniProt P31652); test: Percent binding affinity against serotonin transporter; conditions: concentration not given here
# Sequence of Sodium-dependent serotonin transporter (Rattus norvegicus) (P31652 whole entry, looked up): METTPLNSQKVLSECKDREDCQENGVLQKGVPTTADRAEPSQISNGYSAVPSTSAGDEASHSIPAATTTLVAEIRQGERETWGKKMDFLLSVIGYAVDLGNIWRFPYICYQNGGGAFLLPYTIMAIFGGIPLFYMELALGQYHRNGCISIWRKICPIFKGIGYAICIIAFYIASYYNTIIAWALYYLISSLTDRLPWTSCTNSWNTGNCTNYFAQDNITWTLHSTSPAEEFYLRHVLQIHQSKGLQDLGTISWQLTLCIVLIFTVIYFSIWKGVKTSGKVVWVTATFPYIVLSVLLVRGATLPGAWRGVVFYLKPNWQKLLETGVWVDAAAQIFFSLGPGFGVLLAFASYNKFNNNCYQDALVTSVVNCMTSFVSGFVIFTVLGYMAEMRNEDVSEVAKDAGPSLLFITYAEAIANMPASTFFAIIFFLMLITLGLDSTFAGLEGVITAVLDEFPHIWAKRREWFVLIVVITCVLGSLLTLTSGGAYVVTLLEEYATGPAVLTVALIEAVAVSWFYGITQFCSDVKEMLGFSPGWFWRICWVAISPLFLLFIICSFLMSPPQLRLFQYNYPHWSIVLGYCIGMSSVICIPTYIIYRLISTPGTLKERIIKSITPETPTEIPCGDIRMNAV
smiles,measurement,setting,value
c1cc2c3c(c1)c1c(n3CCNC2)CCCCCC1,Ki,[1],> 5 µM
same,inhibition,[2],14%
